Measured values reported in patent US20060052283A1, “The Sperm Binding Ligand HIPRTY and Its Involvement in Embryo Cleavage” (priority 2004, published 2006).

System: mouse sperm
Experiment: Phage combinatorial peptide library screening of intact live sperm
Settings: live CB6F1 mouse sperm, 4 rounds of binding, amplification and selection, Ph.D-7 and Ph.D-12 libraries
Protocol: A mouse sperm suspension was isolated from cauda epididymides of fertile male CB6F1 mice. Briefly, the epididymides and vas deferens were dissected in a 35 mm dish containing 5 ml of CZB (pre-equilibrated at 37° C. and 5% CO2) and gently compressed to release sperm. Following a 10 minute incubation period, the epididimydes were removed and the sperm suspension incubated for a further 30 minute period. A 500 ul aliquot of the sperm suspension was removed from the top layer of media and placed in a 1.5 ml centrifuge tube. A 3 ul volume of phage combinatorial peptide library was added to this tube and the suspension incubated for 1 hour at 37 degrees. Following incubation, the sperm suspension was washed as follows. The suspension was centrifuged in a tabletop microcentrifuge at maximum speed for 1 minute and the majority of the supernatant removed. The remaining volume was re-suspended in 1 ml of media via pipetting and separated into two 500 ul aliquots in two 15 ml centrifuge tubes. A further 14 ml of CZB wash media was added to these tubes followed by 15 min incubation at room temperature. The tubes were centrifuged at 1000 g for 5 minutes and the supernatant removed down to an approximate 50 ul volume. […]
Phage DNA was isolated by several different methods. […] DNA quality and quantity was determined via agarose gel electrophoresis on vertical mini-gels with novel illumination and filters. […]

## HIPRTY
  binding sequence selected from combinatorial libraries: binding sequence of mouse sperm
